According to article PMC9161374 (Science Translational Medicine, 2022):
Where “and” joins values, the source holds several entries; their conditions need not be identical. Identical values can stand only once.

Experiments:
SARS-CoV-2 (B.1) = experiment: Anti-SARS-CoV-2 activity in Vero E6 cells (viral yield by qRT-PCR); type: cell-based
[1] = system: SARS-CoV-2 (Delta, B.1.617.2); experiment: microbe, parasite or virus in culture; type: cell-based; conditions: for % Inhibition: delta
[2] = CCK-8 cell viability assay; type: cell-based, African green monkey; conditions: African green monkey; Vero E6 cells, 48 h, CCK8
In short: (§1)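 Vero E6 cells, 20,000/well, exposed to compound at 0–200 μM (0, 0.01, 0.1, 1, 5, 10, 50, 75, 100, 200 μM) for 48 h; viability read by CCK-8 and expressed as percentage versus drug concentration, mean ± SD.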

Vero E6 cells = experiment: CCK-8 cell viability assay; type: cell-based, African green monkey; conditions: individual replicate values, Fig.S4
In short: as §1

[3] = system: SARS-CoV-2 replicon system (pBAC-SARS-CoV-2-Replicon-Luc); experiment: microbe, parasite or virus in culture; type: cell-based; conditions: Severe acute respiratory syndrome coronavirus 2, HEK-293T, 60 h
[4] = system: SARS-CoV-2 (B.1) in Huh7 cells; experiment: Anti-SARS-CoV-2 activity in Huh7 cells (viral yield by qRT-PCR); type: cell-based; conditions: B.1, MOI 0.05, 48 h
[5] = system: SARS-CoV-2 (Beta, B.1.351); experiment: microbe, parasite or virus in culture; type: cell-based; conditions: for % Inhibition: beta

CCC(CC)C(=O)OC[C@H]1O[C@@](C#N)(c2ccc3c(N)ncnn23)[C@H](O)[C@@H]1O [ATV011]
% Inhibition (SARS-CoV-2 (B.1); 0.1 μM, replicates, sheet Fig.S3): 0%
% Inhibition (SARS-CoV-2 (B.1); 0.5 μM, replicates, sheet Fig.S3): 0%
% Inhibition (SARS-CoV-2 (B.1); 1 μM, replicates, sheet Fig.S3): 78.517%
% Inhibition (SARS-CoV-2 (B.1); 2 μM, replicates, sheet Fig.S3): 79.6525%
% Inhibition (SARS-CoV-2 (B.1); 5 μM, replicates, sheet Fig.S3): 91.2053%
% Inhibition (SARS-CoV-2 (B.1); 10 μM, replicates, sheet Fig.S3): 90.9393%
% Inhibition (SARS-CoV-2 (B.1); B.1, 0.01 uM, Vero E6, replicates): 0%
% Inhibition (SARS-CoV-2 (B.1); B.1, 0.1 uM, Vero E6, replicates): 0%
% Inhibition (SARS-CoV-2 (B.1); B.1, 0.25 uM, Vero E6, replicates): 0%
% Inhibition (SARS-CoV-2 (B.1); B.1, 0.5 uM, Vero E6, replicates): 0%
% Inhibition (SARS-CoV-2 (B.1); B.1, 1 uM, Vero E6, replicates): 0%
% Inhibition (SARS-CoV-2 (B.1); B.1, 2 uM, Vero E6, replicates, 2 µM): 3.841% and 72.4491%
% Inhibition (SARS-CoV-2 (B.1); B.1, 5 uM, Vero E6, replicates, 5 µM): 99.7181%
% Inhibition (SARS-CoV-2 (B.1); B.1, 10 uM, Vero E6, replicates, 10 µM): 99.9819%
% Inhibition (SARS-CoV-2 (B.1); B.1, 50 uM, Vero E6, replicates, 50 µM): 99.9874%
inhibition at 0.1 µM (SARS-CoV-2 (B.1); Severe acute respiratory syndrome coronavirus 2, Vero C1008, 0.1 μM, replicates, sheet Fig.S3): 0%
inhibition at 0.5 µM (SARS-CoV-2 (B.1); Severe acute respiratory syndrome coronavirus 2, Vero C1008, 0.5 μM, replicates, sheet Fig.S3): 0%
inhibition at 1 µM (SARS-CoV-2 (B.1); Severe acute respiratory syndrome coronavirus 2, Vero C1008, 1 μM, replicates, sheet Fig.S3): 77.4%
inhibition at 2 µM (SARS-CoV-2 (B.1); Severe acute respiratory syndrome coronavirus 2, Vero C1008, 2 μM, replicates, sheet Fig.S3): 78%
inhibition at 5 µM (SARS-CoV-2 (B.1); Severe acute respiratory syndrome coronavirus 2, Vero C1008, 5 μM, replicates, sheet Fig.S3): 93.5%
inhibition at 10 µM (SARS-CoV-2 (B.1); Severe acute respiratory syndrome coronavirus 2, Vero C1008, 10 μM, replicates, sheet Fig.S3): 93.2%
inhibition at 0.01 µM (SARS-CoV-2 (B.1); Severe acute respiratory syndrome coronavirus 2, Vero C1008, B.1, 0.01 uM, Vero E6, replicates): 0%
inhibition at 0.1 µM (SARS-CoV-2 (B.1); Severe acute respiratory syndrome coronavirus 2, Vero C1008, B.1, 0.1 uM, Vero E6, replicates): 0%
inhibition at 0.25 µM (SARS-CoV-2 (B.1); Severe acute respiratory syndrome coronavirus 2, Vero C1008, B.1, 0.25 uM, Vero E6, replicates): 0%
inhibition at 0.5 µM (SARS-CoV-2 (B.1); Severe acute respiratory syndrome coronavirus 2, Vero C1008, B.1, 0.5 uM, Vero E6, replicates): 0%
inhibition at 1 µM (SARS-CoV-2 (B.1); Severe acute respiratory syndrome coronavirus 2, Vero C1008, B.1, 1 uM, Vero E6, replicates): 0%
inhibition at 5 µM (SARS-CoV-2 (B.1); Severe acute respiratory syndrome coronavirus 2, Vero C1008, B.1, 5 uM, Vero E6, replicates): 99.5%
inhibition at 10 µM (SARS-CoV-2 (B.1); Severe acute respiratory syndrome coronavirus 2, Vero C1008, B.1, 10 uM, Vero E6, replicates): 99.9%
inhibition at 50 µM (SARS-CoV-2 (B.1); Severe acute respiratory syndrome coronavirus 2, Vero C1008, B.1, 50 uM, Vero E6, replicates): 99.9%
EC90 (SARS-CoV-2 (B.1); Severe acute respiratory syndrome coronavirus 2, Vero C1008, read-out: EC90 (Confidence 95%)): 2640 nM
EC50 (SARS-CoV-2 (B.1); Severe acute respiratory syndrome coronavirus 2, Vero C1008, MOI 0.05, 48 h): 2120 nM
EC50 ([1]; Severe acute respiratory syndrome coronavirus 2, Vero C1008, 48 h, read-out: EC50 in Vero E6 cells, SARS-CoV-2 (Delta, B.1.617.2)): 408 nM
inhibition at 0.01 µM ([1]; Severe acute respiratory syndrome coronavirus 2, Vero C1008, delta, 0.01 uM, Vero E6, replicates): 0%
inhibition at 0.1 µM ([1]; Severe acute respiratory syndrome coronavirus 2, Vero C1008, delta, 0.1 uM, Vero E6, replicates): 0%
inhibition at 0.25 µM ([1]; Severe acute respiratory syndrome coronavirus 2, Vero C1008, delta, 0.25 uM, Vero E6, replicates): 18.8%
inhibition at 0.5 µM ([1]; Severe acute respiratory syndrome coronavirus 2, Vero C1008, delta, 0.5 uM, Vero E6, replicates): 74.2%
inhibition at 1 µM ([1]; Severe acute respiratory syndrome coronavirus 2, Vero C1008, delta, 1 uM, Vero E6, replicates): 83.5%
inhibition at 2 µM ([1]; Severe acute respiratory syndrome coronavirus 2, Vero C1008, delta, 2 uM, Vero E6, replicates): 94.4%
inhibition at 5 µM ([1]; Severe acute respiratory syndrome coronavirus 2, Vero C1008, delta, 5 uM, Vero E6, replicates): 94.6%
inhibition at 10 µM ([1]; Severe acute respiratory syndrome coronavirus 2, Vero C1008, delta, 10 uM, Vero E6, replicates): 99.9%
inhibition at 50 µM ([1]; Severe acute respiratory syndrome coronavirus 2, Vero C1008, delta, 50 uM, Vero E6, replicates): 100%
EC90 ([1]; Severe acute respiratory syndrome coronavirus 2, Vero C1008, read-out: EC90 (Confidence 95%), Vero-E6, Delta B.1.617.2): 842 nM
% Inhibition ([1]; 0.01 uM, Vero E6, replicates): 0%
% Inhibition ([1]; 0.1 uM, Vero E6, replicates): 0%
% Inhibition ([1]; 0.25 uM, Vero E6, replicates): 20.35%
% Inhibition ([1]; 0.5 uM, Vero E6, replicates): 62.851%
% Inhibition ([1]; 1 uM, Vero E6, replicates): 82.2323%
% Inhibition ([1]; 2 uM, Vero E6, replicates): 91.97%
% Inhibition ([1]; 5 uM, Vero E6, replicates): 91.6601%
% Inhibition ([1]; 10 uM, Vero E6, replicates): 99.4778%
% Inhibition ([1]; 50 uM, Vero E6, replicates): 99.7579%
CC50 at 48 h [2]: > 50000 nM
cell viability (% of control) (Vero E6 cells; 0.01 μM compound, 0.01 µM): 118.751 % of control and 91.986 % of control and 93.878 % of control
cell viability (% of control) (Vero E6 cells; 0.1 μM compound, 0.1 µM): 121.196 % of control and 124.104 % of control and 115.797 % of control
cell viability (% of control) (Vero E6 cells; 1 μM compound, 1 µM): 117.043 % of control and 115.382 % of control and 124.473 % of control
cell viability (% of control) (Vero E6 cells; 2 μM compound, 2 µM): 120.919 % of control and 113.536 % of control and 114.367 % of control
cell viability (% of control) (Vero E6 cells; 5 μM compound, 5 µM): 138.178 % of control and 143.9 % of control and 139.562 % of control
cell viability (% of control) (Vero E6 cells; 10 μM compound, 10 µM): 141.085 % of control and 129.595 % of control and 122.535 % of control
cell viability (% of control) (Vero E6 cells; 50 μM compound, 50 µM): 76.4283 % of control and 65.5331 % of control and 77.184 % of control
EC50 ([3]; read-out: EC50 (Confidence 95%), replicon): 320 nM
EC90 ([3]; read-out: EC90 (Confidence 95%), replicon): 384 nM
EC50 ([4]; Severe acute respiratory syndrome coronavirus 2, Huh-7, read-out: EC50 (Confidence 95%) in Huh7 cells): 836 nM
EC90 ([4]; Severe acute respiratory syndrome coronavirus 2, Huh-7, read-out: EC90 (Confidence 95%) in Huh7 cells): 1010 nM
EC50 ([5]; Severe acute respiratory syndrome coronavirus 2, Vero C1008, 48 h, read-out: EC50 in Vero E6 cells, SARS-CoV-2 (Beta, B.1.351)): 2300 nM
inhibition at 0.01 µM ([5]; Severe acute respiratory syndrome coronavirus 2, Vero C1008, beta, 0.01 uM, Vero E6, replicates): 0%
inhibition at 0.1 µM ([5]; Severe acute respiratory syndrome coronavirus 2, Vero C1008, beta, 0.1 uM, Vero E6, replicates): 0%
inhibition at 0.25 µM ([5]; Severe acute respiratory syndrome coronavirus 2, Vero C1008, beta, 0.25 uM, Vero E6, replicates): 0%
inhibition at 0.5 µM ([5]; Severe acute respiratory syndrome coronavirus 2, Vero C1008, beta, 0.5 uM, Vero E6, replicates): 0%
inhibition at 1 µM ([5]; Severe acute respiratory syndrome coronavirus 2, Vero C1008, beta, 1 uM, Vero E6, replicates): 0%
inhibition at 2 µM ([5]; Severe acute respiratory syndrome coronavirus 2, Vero C1008, beta, 2 uM, Vero E6, replicates): 29.7%
inhibition at 5 µM ([5]; Severe acute respiratory syndrome coronavirus 2, Vero C1008, beta, 5 uM, Vero E6, replicates): 99.6%
inhibition at 10 µM ([5]; Severe acute respiratory syndrome coronavirus 2, Vero C1008, beta, 10 uM, Vero E6, replicates): 99.9%
inhibition at 50 µM ([5]; Severe acute respiratory syndrome coronavirus 2, Vero C1008, beta, 50 uM, Vero E6, replicates): 99.9%
EC90 ([5]; Severe acute respiratory syndrome coronavirus 2, Vero C1008, read-out: EC90 (Confidence 95%), Vero-E6, Beta B.1.351): 2950 nM
% Inhibition ([5]; 0.01 uM, Vero E6, replicates): 0%
% Inhibition ([5]; 0.1 uM, Vero E6, replicates): 0%
% Inhibition ([5]; 0.25 uM, Vero E6, replicates): 0%
% Inhibition ([5]; 0.5 uM, Vero E6, replicates): 0%
% Inhibition ([5]; 1 uM, Vero E6, replicates): 0%
% Inhibition ([5]; 2 uM, Vero E6, replicates): 22.548%
% Inhibition ([5]; 5 uM, Vero E6, replicates): 99.5042%
% Inhibition ([5]; 10 uM, Vero E6, replicates): 99.9468%
% Inhibition ([5]; 50 uM, Vero E6, replicates): 99.9524%
